Measured values: US10975352B2, “Methods of enhancing cell survival of stem cells” (The Scripps Research Institute, priority 2008, dated 2021)

Experiments:
hESCs [1] = assay: ALP positive colony formation / low-density survival assay of dissociated hESCs on Matrigel; assay type: cell-based, human; details: adherent culture (e.g. Matrigel-coated plate)
Protocol: Human ESC lines H1, HUES7 and HUES9 were cultured on irradiated MEF feeder cells in DMEM-F12 supplemented with 2 mM L-glutamine, lx nonessential amino acids, 20% serum replacement (Invitrogen) and 10 ng/ml basic Fibroblast growth factor (Invitrogen). Chemically-defined and feeder-free hESC culture was described previously (Yao, S. et al., Proc Natl Acad Sci USA 103 (18):6907-6912 (2006)). Briefly, hESCs were grown on Matrigel-coated tissue culture plates in N2B27-CDM (DMEM-F12 supplemented with 1×N2 supplements, lx B27 supplements, 2 mM L-glutamine, 0.11 mM 2-mercaptoethanol, lx nonessential amino acids, and 0.5 mg/ml BSA (fraction V)) and 20 ng/ml bFGF. Human ESCs were passaged every 5-6 days with 0.05% trypsin.
For clonal survival assays, single hESCs were diluted to clonal density and plated onto 96-well Matrigel-coated plate. For low-density survival assays, 500 cells were plated onto 96-well Matrigel-coated plate. To visualize hESC colonies, cultures were fixed in 4% paraformaldehyde in PBS for 5 min, washed once in PBS, then stained for alkaline phosphatase activity as described in manufacturer's instructions. ALP positive colonies were counted on an inverted microscope.
ALP detection kit and integrin antibodies were from Chemicon. AG825 (Erb2 inhibitor), AG1478 (EGFR inhibitor), PPP (IGFR1 inhibitor) were purchased from Calbiochem. Antibodies raised against the intracytoplasmic tail of E-cadherins (Transduction Laboratories, Lexington, Ky.) were used for immunoprecipitation. The antibody TS2/16 was from Pierce. Antibodies to the extracellular domain of E-cadherin molecule were from Zymed (Carlsbad). Antibodies against extracellular signal-regulated kinase/MAPK, EGFR1, ERB2, GADPH and phosphorylated form of AKT were from Cell Signaling. Mouse monoclonal anti-phosphotyrosine (4G-10 clone) was from Upstate Biotechnology. Ptn and Tzv were added to culture medium at 2 μM. […]

hESCs [2] = assay: Cell death analysis of dissociated hESCs in suspension culture; assay type: cell-based, human
From the text: hESCs are known to be difficult in forming embryoid bodies (EBs) in suspension culture after single cell dissociation due to extensive cell death. Thus, we also tested whether Tzv or Ptn could promote survival of dissociated hESCs in suspension. […] Because cell aggregation is most often mediated through cell-cell adhesions and E-cadherin is the primary cell-cell adhesion molecule, as well as highly expressed in hESCs (Eastham, A. M. et al., Cancer Res 67 (23): 11254-11262 (2007)), we tested the effect of a specific E-cadherin blocking antibody on multicellular aggregate formation.
The hESCs under different treatments were dissociated by trypsin and fixed by 4% paraformaldehyde. And the staining was carried out according to the manufacturer's instructions (MBL Laboratories, Watertown, Mass.). After staining, samples were analysed by flow cytometry using a FACS Calibur flow cytometer (BD).

hESCs [3] = assay: Cell adhesion assay; assay type: cell-based, human
Protocol: Cell adhesion assays were performed in 96-well microtiter plates coated with Matrigel. After trypsin, hESCs were resuspended in the chemically-defined media containing the desired compounds. Cells were then added to the microtiter wells and incubated for 3 h at 37° C. Unbound and loosely bound cells were removed by shaking and washing, and the remaining cells were then fixed immediately. The wells were washed 3 times with 200 μl of H2O, and attached cells were stained with Crystal Violet (Sigma). The absorbance of each well at 570 nm was then measured. For experiments with blocking antibodies, cells were pre-incubated with antibodies on ice for 30 min, and adhesion assays were performed in the presence of antibodies. Each sample was assayed independently for three times.

E-cadherin = E-cadherin expression in hESCs after trypsin dissociation (Western blot, flow cytometry, RT-PCR); assay type: cell-based, human
From the text: We then examined E-cadherin expression in hESCs after trypsin dissociation. […] This observation was consistent with the report that the extracellular region of E-cadherin has an endoproteolytic cleavage site near the transmembrane domain (Damsky, C. H. et al., Cell 34 (2):455-466 (1983)). […] Therefore, Tzv is likely to affect cell adhesion by modulating cell surface level of E-cadherins. […] It is likely that Tzv exerts its effect through stabilization of E-cadherin on the cell surface.
To assess the expression of E-cadherin, activated integrin and SSEA4, dissociated cells (3×10^5) were washed with PBS and resuspended in PBS containing 2% goat serum. Cells were then incubated with the appropriate antibody for 1 h at 4° C., washed with the blocking solution, and labeled with FITC-conjugated secondary antibody for 30 min at 4° C. Cells were then washed and analyzed on a FACS Calibur flow cytometer.

[4] = system: primary human pancreatic islets/beta cells; assay: Cell death of dispersed primary human pancreatic islets/beta cells; assay type: cell-based; details: plate coated with matrigel or laminin; 1-2 mM in media
Protocol: For example, the inventors dispersed primary human pancreatic islets/beta cells plated as single cells onto a tissue culture plate that was coated with matrigel or laminin. […] Accordingly, in some embodiments, a compound of the present invention is administered to an individual in need of pancreatic beta and/or islet cells, wherein administration of the compound results in an increase in the number of beta or islet cells in the individual.

[5] = system: mouse P1 cortical explants; assay: Axon outgrowth from mouse P1 cortical explants; assay type: cell-based; details: 3 μM; added 20 minutes after plating; 4 days in culture; DMSO control
Protocol: Compounds of formula I and III (i.e., Tvz and Ptn) are effective at promoting axonal regeneration and functional recovery in injured central nervous system. […] Tzv (3 μM) was tested on mouse P1 cortical explants, with axon outgrowth as an outcome read-out. Tzv was added to the medium 20 minutes after plating, with DMSO as a control. […] Accordingly, in some embodiments, a compound of the present invention is administered to an individual having a central nervous system injury or who is in need or would otherwise benefit from axonal regeneration.

[6] = system: epithelial to mesenchymal transition/EMT; assay: Induction of MET / inhibition of EMT; assay type: cell-based
stem cells = assay: Survival and anti-differentiation of stem cells ex vivo; assay type: cell-based; details: human and mouse embryonic, neural, skin, mesenchymal, hematopoietic, stromal and epithelial stem cells; contact immediately after isolation
From the text: In some embodiments, the invention provides methods of promoting survival and anti-differentiation in stem cells ex-vivo.

hESCs [7] = assay: Karyotyping (G-banding) of long-term expanded hESCs; assay type: cell-based, human; details: more than 20 generations; chemically-defined medium
Protocol: Teratoma formation experiments were performed by injecting 3-5 million hESCs (maintained in the presence of compounds Tvz or Ptn) under the kidney capsule of nude mice. After 4-5 weeks, all mice developed teratomas, which were removed and then immunohistologically analyzed by The Scripps Research Institute Research Histology Service and Animal Resources. Compounds treated cells were karyotyped by standard G-banding at the Children's Hospital Oakland, Cytogenetics Laboratory. No chromosomal abnormality was found in the 10 randomly picked nuclei.

SMILES: O=C(NCc1ccccc1)c1csc(Nc2ccncn2)n1 [Tzv, N-benzyl-2-(pyrimidin-4-ylamino)thiazole-4-carboxamide]
- survival of dissociated hESCs in adherent culture (hESCs [1]): greatly improved survival
- survival of dissociated hESCs in suspension culture (hESCs [2]): greatly improved survival
- adhesion of dissociated hESCs to Matrigel or laminin (hESCs [3]): dramatically increased adhesion
- adhesion of hESCs to gelatin or poly-lysine (hESCs [3]): not affected
- cell surface E-cadherins (E-cadherin; flow cytometry): significantly increased
- E-cadherin transcripts vs mock controls (E-cadherin; semiquantitative RT-PCR): comparable amounts
- full-length E-cadherin expression after trypsin dissociation (E-cadherin; time-course Western blot): significantly increased
- cell death of single primary beta cells [4]: cell death was inhibited
- axon outgrowth [5]: dramatic effect in promoting axon outgrowth
- MET induction and EMT inhibition [6]: can induce MET (the reverse of EMT) and inhibit EMT
- survival and anti-differentiation of stem cells (stem cells): effective in promoting survival and anti-differentiation
- karyotype of hESCs serially passaged in compound-containing medium (hESCs [7]): normal karyotype
